Our source for the Kd values is article PMC11267533, “Ligandability at the Membrane Interface of GPx4 Revealed through a Reverse Micelle Fragment Screening Platform” (JACS Au, 2024).

Where two headings read alike, the source gives them in different places. Where only a bound is given, the exact number is not on record here.

The test concerns the target T1, GPx4 embedded in a mmRM (membrane-bound GPx4) (Homo sapiens, UniProt P36969, U73G).
T1 construct: Truncated U46G-GPx4 with a TEV cleavable poly-histidine tag was inserted into vector; poly-histidine tag with TEV cleavage site; host or cells: BL21 (DE3) E. coli
T1 sequence (P36969 1-170 isoform P36969-2 U46G): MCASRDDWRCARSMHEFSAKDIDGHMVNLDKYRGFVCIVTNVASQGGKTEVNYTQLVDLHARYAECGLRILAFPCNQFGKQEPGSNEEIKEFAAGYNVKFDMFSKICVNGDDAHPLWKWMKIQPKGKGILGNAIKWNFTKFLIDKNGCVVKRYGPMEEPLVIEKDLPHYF
In words: NMR (15N-HSQC) titration of fragments against GPx4 embedded in DLPC/DPC mmRM, apparent Kd. The test is classed as binding. Conditions: ± standard error of global Kd fit. From the text: To assess whether the fragment hits are bound specifically to GPx4 and to calculate affinity, we performed NMR-based titrations. Chemical shift changes that approach saturation in a structurally localized manner target indicate specific binding.[24] This allows true positive hits to be separated from false positives and weak or nonspecific binders. Additionally, NMR-based titrations allow for the extraction of a binding affinity (Kd). To calculate apparent Kd values, CSP cutoffs were used to isolate the resonances with most shifting using 1 standard deviation above the average CSP. All 14 fragments identified from the deconvolutions were titrated up to 400 μM or 1 mM if needed. Of the 14, 9 had apparent Kds less than 1 mM and were identified as hits. Observed here is a 0.47% hit rate with best affinities in the μM range for the membrane-bound form of GPx4 and is consistent with ligandable and potentially druggable targets.[14],[57] […] The remaining five fragments, 10–14, were ruled out as weaker (>∼1 mM) or nonspecific binders. Weak or nonspecific binding could indicate that fragments partitioning to the mmRM surface and perturb the protein spectrum through a simple change in the chemical environment at the interface, among other possible nonspecific effects. […] We note that the weaker and nonspecific fragments were only eliminated due to interaction modes that are too weak or unproductive for advancement toward inhibitors; yet, binding was nevertheless detected. […] We note here that apparent Kd values reported in this study account for a total amount of fragment and protein within the mmRM sample and are not corrected for any potential concentrating effect due to localization of fragment to the mmRM surface or water phase.
NMR samples were prepared with ^15N-isotopically labeled protein with 10% v/v of d-pentane as the lock solvent (Sigma-Aldrich, St. Louis, MO). All NMR spectra were collected at 25 °C on a 700 MHz Bruker Avance III instrument. All NMR spectra were processed using NMRPipe[66] and analyzed using NMRFAM-Sparky.[67] Chemical shifts for GPx4 (BMRB 50955) were assigned from those previously published.[52] Chemical shift perturbations from ^15N-HSQC spectra were calculated using the following formula [drawing 1] where Δ^1H and Δ^15N are the changes in ^1H and ^15N chemical shifts, respectively.
The 14 fragments isolated from deconvolutions were purchased from Life Chemicals (fragments 1, 4, 6, and 11, and 12–14), Combi-Blocks (2, 3, 5, 9, and 10), or ChemBridge Hit2Lead (7 and 8). All fragment 1 and 5 analogues were also purchased from ChemBridge Hit2Lead. Fragments and analogues purchased from Life Chemicals and Hit2Lead are 90+% pure, while the fragments purchased from Combi-Blocks ranged from 95 to 97% pure. The day prior to the titration, a double-volume sample of encapsulated GPx4 was made before being split up into two separate vials. Half of the sample was added to the vial containing predried fragment corresponding to 400 μM or 1 mM. […] If they were, then the two samples were mixed to produce varying concentrations and to measure a titration curve. The top-shifting resonances were determined by calculating the average CSP at 400 μM or 1 mM and 1 and 2 standard deviations (σ) above that average. The CSP for the resonance at each fragment concentration was extracted and fit to a curve using an affinity equation that accounts for ligand depletion [drawing 2]
Any resonance producing a curve with an R^2 below 0.85 was removed, and the remaining resonances were then used to fit a global apparent Kd curve for the fragment hit. Standard error for Kd from the global fit of all of the selected residues is reported.

Setting [1] is: Table 2, analogues of fragment 5, GPx4 in mmRM, read-out: Apparent Kd.
Where [2] appears, read: Table 1, GPx4 in DLPC/DPC mmRM, NMR titration up to 400 μM or 1 mM, read-out: Kd (apparent).

`O=c1oc2c(-c3ccccc3)cc(O)cc2s1` [Analog 5.1]: the Kd under setting [1] was > 400 µM.

As to `Cc1cccc(-c2cc(O)cc3sc(=O)oc23)c1` [Analog 5.2], the Kd under setting [1] is > 400 µM.

With `O=c1oc2c(-c3ccccc3Cl)cc(O)cc2s1` [Analog 5.3], under setting [1], the Kd amounted to 85 ± 50 µM.

Take `O=c1oc2c(-c3ccc(Cl)cc3)cc(O)cc2s1` [Analog 5.4]: the Kd under setting [1] stood at 40 ± 20 µM.

In the case of `O=c1oc2c(-c3cccc(Cl)c3)cc(O)cc2s1` [Analog 5.6], the Kd under setting [1] came out at 25 ± 10 µM.

Take `Cc1ccc(-c2cc(O)cc3sc(=O)oc23)cc1Cl` [Analog 5.7]: the Kd under setting [1] stood at 15 ± 10 µM.

For the molecule `N#Cc1ccc(CC(=O)O)cc1` [Fragment 2], under setting [2], the Kd was determined as 110 ± 65 µM.

With `NCCS(=O)(=O)c1ccccc1` [Fragment 3], the Kd under setting [2] came to 140 ± 50 µM.

Consider `COCC(=O)N1CCOc2ccccc2C1` [Fragment 4], for which the Kd under setting [2] was found to be 140 ± 85 µM.

For `NCc1nc(-c2ncccn2)no1` [Fragment 7], the Kd under setting [2] was 310 ± 100 µM.

As to `CC(=O)c1c(C)nn(CC(=O)O)c1C` [Fragment 8], the Kd under setting [2] was determined as 370 ± 165 µM.

Take `CCOC(=O)c1ccc(Cl)nn1` [Fragment 9]: under setting [2], the Kd is 840 ± 300 µM.
